Experimental data as given in patent publication US12599672B2, “KRAS proteolysis targeting chimeras” (PAQ Therapeutics Inc., priority 2023, dated 2026).

Experiments:
KRAS G12V = target: T1, KRAS G12V (Homo sapiens, UniProt P01116, G12V); assay: KRAS G12V HiBit assay; assay type: cell-based; settings: SW620-KRAS (G12V)-HiBit-KI cells, compound treatment for 24 hours, class symbols
T1 construct: SW620-KRAS (G12V)-HiBit-KI cell (Pharmaron); host or cells: SW620-KRAS (G12V)-HiBit-KI cells (HiBiT knock-in at the endogenous KRAS locus)
T1 sequence (P01116 1-188 isoform P01116-2 G12V): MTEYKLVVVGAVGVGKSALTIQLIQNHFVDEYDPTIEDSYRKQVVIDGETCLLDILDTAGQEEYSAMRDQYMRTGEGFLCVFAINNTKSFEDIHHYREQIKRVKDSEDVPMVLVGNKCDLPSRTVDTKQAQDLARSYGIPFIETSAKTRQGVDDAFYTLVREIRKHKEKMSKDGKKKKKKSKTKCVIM
Outline: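 HiBiT-tagged KRAS G12V cells treated 24 h with compound in a 3-fold, 10-point series (0.3 mM DMSO stock); lytic HiBiT reagent with LgBiT added after 15 min room-temperature equilibration. Degradation calculated against 0.1% DMSO high control.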

KRAS G12D = target: T2, KRAS G12D (Homo sapiens, UniProt P01116, G12D); assay: KRAS G12D HiBit assay; assay type: cell-based; settings: AsPc-1-KRAS (G12D)-HiBit-KI cell, compound treatment for 24 hours; for DC50: absolute DC50
T2 construct: AsPc-1-KRAS (G12D)-HiBit-KI cell (Pharmaron); host or cells: AsPc-1-KRAS (G12D)-HiBit-KI cells (HiBiT knock-in at the endogenous KRAS locus)
T2 sequence (P01116 1-188 isoform P01116-2 G12D): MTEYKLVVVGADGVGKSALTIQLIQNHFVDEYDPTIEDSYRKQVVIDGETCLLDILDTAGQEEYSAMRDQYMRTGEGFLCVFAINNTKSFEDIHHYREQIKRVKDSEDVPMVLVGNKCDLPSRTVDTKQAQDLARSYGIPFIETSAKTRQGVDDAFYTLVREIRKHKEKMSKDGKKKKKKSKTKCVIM
Outline: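 Cells were treated for 24 h with compounds in a 3-fold, 10-point dilution series from a 0.3 mM DMSO stock, then equilibrated 15 min at room temperature. KRAS G12D HiBiT levels were read by luminescence after lytic Nano-Glo HiBiT reagent with LgBiT; inhibition calculated relative to 0.1% DMSO high control.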

[1] = numeric bounds given in place of class symbols

DC50 (KRAS G12V) [nM]	DC50 (KRAS G12D; [1]) [nM]	DC50 (KRAS G12D; class symbols) [nM]	Dmax (KRAS G12D; class symbols) [%]	Compound
> 100	> 100	–	–	C#Cc1c(F)ccc2cccc(-c3ncc4c(N5CCC[C@@](C)(O)C5)nc(OC[C@@]56CCCN5[C@@H](COC(=O)N5CCC(CN7CCC(c8ccc9c(c8)n(C)c(=O)n9C8CCC(=O)NC8=O)CC7)CC5)CC6)nc4c3F)c12 (stereo partly drawn) [Compound 138]
10 to 100	–	< 100	–	CCc1c(F)ccc2cc(O)cc(-c3ncc4c(N5CCC[C@@](C)(O)C5)nc(OC[C@@]56CCCN5[C@H](COC(=O)N5CCC(CN7C8CCC7CC(c7ccc9c(c7)n(C)c(=O)n9C7CCC(=O)NC7=O)C8)CC5)CC6)nc4c3F)c12 (stereo partly drawn) [Compound 393, ((3S,7aS)-7a-(((7-(8-ethyl-7-fluoro-3-hydroxynaphthalen-1-yl)-8-fluoro-4-((R)-3-hydroxy-3-methylpiperidin-1-yl)pyrido[4,3-d]pyrimidin-2-yl)oxy)methyl)hexahydro-1H-pyrrolizin-3-yl)methyl 4-((3-(1-(2,6-dioxopiperidin-3-yl)-3-methyl-2-oxo-2,3-dihydro-1H-benzo[d]imidazol-5-yl)-8-azabicyclo[3.2.1]octan-8-yl)methyl)piperidine-1-carboxylate]
> 100	> 100	–	–	CCc1c(F)ccc2cc(O)cc(-c3ccc4c(N5CCC[C@@](C)(O)C5)nc(OC[C@@]56CCCN5[C@@H](COC(=O)N5CCC(CN7CCC(c8ccc9c(c8)n(C)c(=O)n9C8CCC(=O)NC8=O)CC7)CC5)CC6)nc4c3F)c12 (stereo partly drawn) [Compound 319, ((3R,7aS)-7a-(((7-(8-ethyl-7-fluoro-3-hydroxynaphthalen-1-yl)-8-fluoro-4-((R)-3-hydroxy-3-methylpiperidin-1-yl)quinazolin-2-yl)oxy)methyl)hexahydro-1H-pyrrolizin-3-yl)methyl 4-((4-(1-(2,6-dioxopiperidin-3-yl)-3-methyl-2-oxo-2,3-dihydro-1H-benzo[d]imidazol-5-yl)piperidin-1-yl)methyl)piperidine-1-carboxylate]
> 100	–	< 100	–	C#Cc1c(F)ccc2cc(O)cc(-c3ncc4c(N5CCC[C@@](C)(O)C5)nc(OCC5(CN6CCC(CN7CCC(c8ccc9c(c8)n(C)c(=O)n9C8CCC(=O)NC8=O)CC7)CC6)CC5)nc4c3F)c12 (stereo partly drawn) [Compound 47]
> 100	> 100	–	–	CCc1c(F)ccc2cc(O)cc(-c3ncc4c(N5CCC[C@@](C)(O)C5)nc(OC[C@@]56CCCN5[C@@H](COC(=O)N5CCC(Oc7cccc8c7n(C)c(=O)n8C7CCC(=O)NC7=O)CC5)CC6)nc4c3F)c12 (stereo partly drawn) [Compound 313, ((3R,7aS)-7a-(((7-(8-ethyl-7-fluoro-3-hydroxynaphthalen-1-yl)-8-fluoro-4-((R)-3-hydroxy-3-methylpiperidin-1-yl)pyrido[4,3-d]pyrimidin-2-yl)oxy)methyl)hexahydro-1H-pyrrolizin-3-yl)methyl 4-((1-(2,6-dioxopiperidin-3-yl)-3-methyl-2-oxo-2,3-dihydro-1H-benzo[d]imidazol-4-yl)oxy)piperidine-1-carboxylate]
> 100	–	> 300	–	CCc1c(F)ccc2cccc(-c3ncc4c(N5CCC[C@@](C)(O)C5)nc(OC[C@@]56CCCN5[C@H](COC(=O)NCCOc5ccc7c(c5)n(C)c(=O)n7C5CCC(=O)NC5=O)CC6)nc4c3F)c12 (stereo partly drawn) [Compound 111, ((3S,7aS)-7a-(((7-(8-ethyl-7-fluoronaphthalen-1-yl)-8-fluoro-4-((R)-3-hydroxy-3-methylpiperidin-1-yl)pyrido[4,3-d]pyrimidin-2-yl)oxy)methyl)hexahydro-1H-pyrrolizin-3-yl)methyl (2-((1-(2,6-dioxopiperidin-3-yl)-3-methyl-2-oxo-2,3-dihydro-1H-benzo[d]imidazol-5-yl)oxy)ethyl) carbamate]
10 to 100	> 100	–	–	CCc1c(F)ccc2cc(O)cc(-c3ncc4c(N5CCC[C@@](C)(O)C5)nc(OCC56CCCN5C(COCCCN5CCC(c7ccc8c(c7)n(C)c(=O)n8C7CCC(=O)NC7=O)CC5)CC6)nc4c3F)c12 (stereo partly drawn) [Compound 449, 3-(5-(1-(3-((7a-(((7-(8-ethyl-7-fluoro-3-hydroxynaphthalen-1-yl)-8-fluoro-4-((R)-3-hydroxy-3-methylpiperidin-1-yl)pyrido[4,3-d]pyrimidin-2-yl)oxy)methyl)hexahydro-1H-pyrrolizin-3-yl)methoxy)propyl)piperidin-4-yl)-3-methyl-2-oxo-2,3-dihydro-1H-benzo[d]imidazol-1-yl)piperidine-2,6-dione]
> 100	–	< 100	–	C#Cc1c(F)ccc2cccc(-c3ncc4c(N5CCC[C@@](C)(O)C5)nc(OCC5(CN6CCC(CN7CCC(c8cccc9c8n(C)c(=O)n9C8CCC(=O)NC8=O)CC7)CC6)CC5)nc4c3F)c12 (stereo partly drawn) [Compound 60]
> 100	> 100	–	–	CCc1c(F)ccc2cc(O)cc(-c3ccc4c(N5CCC[C@@](C)(O)C5)nc(OCC56CCCN5C(COC(=O)N5CCC(CN7CCC(c8ccc9c(c8)n(C)c(=O)n9C8CCC(=O)NC8=O)CC7)CC5)CC6)nc4c3F)c12 (stereo partly drawn) [Compound 304, (7a-(((7-(8-ethyl-7-fluoro-3-hydroxynaphthalen-1-yl)-8-fluoro-4-((R)-3-hydroxy-3-methylpiperidin-1-yl)quinazolin-2-yl)oxy)methyl)hexahydro-1H-pyrrolizin-3-yl)methyl 4-((4-(1-(2,6-dioxopiperidin-3-yl)-3-methyl-2-oxo-2,3-dihydro-1H-benzo[d]imidazol-5-yl)piperidin-1-yl)methyl)piperidine-1-carboxylate]
> 100	–	> 300	–	C#Cc1c(F)ccc2cc(O)cc(-c3ncc4c(N5CCC[C@@](C)(O)C5)nc(OC[C@@]56CCCN5[C@H](COC(=O)N5CCC(CN7CCC(c8ccc9c(c8)n(C8CCC(=O)NC8=O)c(=O)n9C)CC7)CC5)CC6)nc4c3F)c12 (stereo partly drawn) [Compound 135]
10 to 100	–	< 100	–	CCc1c(F)ccc2cc(O)cc(-c3ncc4c(N5CCC[C@@](C)(O)C5)nc(OC[C@@]56CCCN5[C@H](COC(=O)c5ccc(N7CCC(c8ccc9c(c8)n(C)c(=O)n9C8CCC(=O)NC8=O)CC7)cc5)CC6)nc4c3F)c12 (stereo partly drawn) [Compound 495, ((3S,7aS)-7a-(((7-(8-ethyl-7-fluoro-3-hydroxynaphthalen-1-yl)-8-fluoro-4-((R)-3-hydroxy-3-methylpiperidin-1-yl)pyrido[4,3-d]pyrimidin-2-yl)oxy)methyl)hexahydro-1H-pyrrolizin-3-yl)methyl 4-(4-(1-(2,6-dioxopiperidin-3-yl)-3-methyl-2-oxo-2,3-dihydro-1H-benzo[d]imidazol-5-yl)piperidin-1-yl)benzoate]
> 100	–	> 300	–	Cn1c(=O)n(C2CCC(=O)NC2=O)c2ccc(C3CCN(CC4CCN(C(=O)CN5CCN(c6nccc(-c7noc([C@@]8(C)CCCc9sc(N)c(C#N)c98)n7)n6)CC5)CC4)CC3)cc21 (stereo partly drawn) [Compound 224]
> 100	–	< 100	> 50	C#Cc1c(F)ccc2cc(O)cc(-c3ncc4c(N5CCCC(F)(F)C5)nc(OCC5(CN6CCN(CC7CCN(c8ccc9c(c8)n(C)c(=O)n9C8CCC(=O)NC8=O)CC7)CC6)CC5)nc4c3F)c12 (stereo not drawn) [Compound 17, 3-(5-(4-((4-((1-(((4-(3,3-Difluoropiperidin-1-yl)-7-(8-ethynyl-7-fluoro-3-hydroxynaphthalen-1-yl)-8-fluoropyrido[4,3-d]pyrimidin-2-yl)oxy)methyl)cyclopropyl)methyl)piperazin-1-yl)methyl)piperidin-1-yl)-3-methyl-2-oxo-2,3-dihydro-1H-benzo[d]imidazol-1-yl) piperidine-2,6-dione]
> 100	–	> 300	–	C#Cc1c(F)ccc2cccc(-c3ncc4c(N5CCC[C@@](C)(O)C5)nc(OCC5(CN6CCN(C7CCN(c8ccc9c(c8)n(C)c(=O)n9C8CCC(=O)NC8=O)CC7)CC6)CC5)nc4c3F)c12 (stereo partly drawn) [Compound 53]
> 100	–	> 300	–	C#Cc1c(F)ccc2cccc(-c3ncc4c(N5CCCC(C#N)CC5)nc(OC[C@@]56CCCN5[C@H](COC(=O)NCCOCCOc5ccc7c(c5)n(C)c(=O)n7C5CCC(=O)NC5=O)CC6)nc4c3F)c12 (stereo partly drawn) [Compound 117, ((3S,7aS)-7a-(((4-(4-Cyanoazepan-1-yl)-7-(8-ethynyl-7-fluoronaphthalen-1-yl)-8-fluoropyrido[4,3-d]pyrimidin-2-yl)oxy)methyl)hexahydro-1H-pyrrolizin-3-yl)methyl (2-(2-((1-(2,6-dioxopiperidin-3-yl)-3-methyl-2-oxo-2,3-dihydro-1H-benzo[d]imidazol-5-yl)oxy)ethoxy)ethyl) carbamate]
< 10	–	< 100	–	CCc1c(F)ccc2cc(O)cc(-c3ncc4c(N5CCC(O)CC5)nc(OC[C@@]56CCCN5[C@H](COC(=O)N5CCC7(CC5)CC(N5CCC(c8ccc9c(c8)n(C)c(=O)n9C8CCC(=O)NC8=O)CC5)C7)CC6)nc4c3F)c12 (stereo partly drawn) [Compound 358, ((3S,7aS)-7a-(((7-(8-ethyl-7-fluoro-3-hydroxynaphthalen-1-yl)-8-fluoro-4-(4-hydroxypiperidin-1-yl)pyrido[4,3-d]pyrimidin-2-yl)oxy)methyl)hexahydro-1H-pyrrolizin-3-yl)methyl 2-(4-(1-(2,6-dioxopiperidin-3-yl)-3-methyl-2-oxo-2,3-dihydro-1H-benzo[d]imidazol-5-yl)piperidin-1-yl)-7-azaspiro[3.5]nonane-7-carboxylate]
